From patent US10478497B2, “Combinations of inecalcitol with an anti-CD38 agent and their uses for treating cancer” (HYBRIGENICS SA., priority 2016, dated 2019)

Tests used:
Assay type in all cases: cell-based, human
[1] = test system: U-937 hystiocytic lymphoma cell line; assay: CD38 expression by flow cytometry on U-937 cells
Source text: (§1) HL-60 acute promyelocytic leukemia cell line was purchased from ECACC (cat. 98070106), U-937 hystiocytic lymphoma cell line and MM.1S multiple myeloma cell line were purchased from ATCC (cat. CRL-2974 and cat CRL-1593,2, respectively), L-363 multiple myeloma cell line, L-428 classical Hodgkin lymphoma cell line and RS4,11 B-acute lymphoblastic leukemia cell lines were purchased from DSMZ (plasma cell leukemia, cat. ACC 49, cat. ACC 197 and cat. ACC 508, respectively). All cells were maintained in RPMI Medium 1640—GlutaMAX™ (Gibco 61870) except the RS4,11 cells in alpha-MEM Medium (Gibco 12571-063), supplemented with 10% heat inactivated charcoal stripped fetal bovine serum. All culture media were supplemented with 100 units/ml penicillin and 0.1 mg/ml streptomycin, and cell lines were cultured at 37° C. in a humidified atmosphere containing 5% CO2.
(§2) Cells were treated for 72 h with various concentrations of inecalcitol (Hybrigenics, Paris, France) before labelling with fluorescent anti-human CD38 FITC (eBioscience, Vienna, Austria, cat. 11-0389-41) or the matched isotype control: mouse IgG1 K FITC (eBioscience, Vienna Austria, cat. 11-4714-41) for 1 h at 4° C. in native buffer (PBS, 2% BSA, 0.1% sodium azide). After cell wash, fluorescence was measured on an ACEA NovoCyte Flow Cytometer.

[2] = test system: L-428 classical Hodgkin lymphoma cell line; assay: CD38 expression by flow cytometry on L-428 cells
Source text: as §1, §2

[3] = test system: L-363 multiple myeloma cell line; assay: CD38 expression by flow cytometry on L-363 cells
Source text: as §1, §2

[4] = test system: HL-60 acute promyelocytic leukemia cell line; assay: CD38 expression by flow cytometry on HL-60 cells
Source text: as §1, §2

[5] = test system: MM.1S multiple myeloma cell line; assay: CD38 expression by flow cytometry on MM.1S cells
Source text: as §1, §2

[6] = test system: RS4,11 B-acute lymphoblastic leukemia cell line; assay: CD38 expression by flow cytometry on RS4,11 cells
Source text: as §1, §2

EC50 ([1]; U-937 cells, 72 h treatment, anti-human CD38 FITC flow cytometry, read-out: concentration which triggered 50% of the maximum CD38 induction (EC50)): 0.57 nM
EC50 ([2]; L-428 cells, 72 h treatment, anti-human CD38 FITC flow cytometry, read-out: concentration which triggered 50% of the maximum CD38 induction (EC50)): 0.23 nM
EC50 ([3]; L-363 cells, 72 h treatment, anti-human CD38 FITC flow cytometry, read-out: concentration which triggered 50% of the maximum CD38 induction (EC50)): 4 nM
EC50 ([4]; HL-60 cells, 72 h treatment, anti-human CD38 FITC flow cytometry, read-out: concentration which triggered 50% of the maximum CD38 induction (EC50)): 0.43 nM
EC50 ([5]; MM1.S, MM.1s cells, 72 h treatment, anti-human CD38 FITC flow cytometry, read-out: concentration which triggered 50% of the maximum CD38 induction (EC50)): 0.49 nM
EC50 ([6]; RS4,11 cells, 72 h treatment, anti-human CD38 FITC flow cytometry, read-out: concentration which triggered 50% of the maximum CD38 induction (EC50)): 0.55 nM
SMILES: C[C@H](CC#CC(C)(C)O)[C@H]1CC[C@@H]2/C(=C/C=C3C[C@@H](O)C[C@H](O)C3)CCC[C@@]21C [inecalcitol, 14epi-, 19nor-, 23yne-, 1,25dihydroxy-cholecalciferol]
effect on CD38 expression (fold increase of CD38 mean fluorescent signal), in words ([1]; FIG. 3, U-937 cell line, dose dependent): enhances CD38 expression
maximal increase in fluorescent labelling (CD38) ([1]; U-937 cells, 72 h treatment): 5 fold
effect on CD38 expression (fold increase of CD38 mean fluorescent signal), in words ([2]; FIG. 5, classical Hodgkin lymphoma cell line, dose dependent): enhances CD38 expression
increase in fluorescent labelling (CD38) ([2]; L-428 cells, 72 h treatment): 2 fold
effect on CD38 expression (fold increase of CD38 mean fluorescent signal), in words ([3]; FIG. 2, L-363 cell line, dose dependent): enhances CD38 expression
maximal increase in fluorescent labelling (CD38) ([3]; L-363 cells, 72 h treatment): 5 fold
effect on CD38 expression (fold increase of CD38 mean fluorescent signal), in words ([4]; FIG. 4, HL-60 cell line, dose dependent): enhances CD38 expression
effect on CD38 expression (fold increase of CD38 mean fluorescent signal), in words ([5]; FIG. 1, MM.1S cell line, dose dependent): enhances CD38 expression
maximal increase in fluorescent labelling (CD38) ([5]; MM.1s cells, 72 h treatment): 5 fold
effect on CD38 expression (fold increase of CD38 mean fluorescent signal), in words ([6]; FIG. 6, RS4.11 cell line, dose dependent): enhances CD38 expression
increase in fluorescent labelling (CD38) ([6]; RS4,11 cells, 72 h treatment): 2.5 fold
